The record followed here is article PMC12700550, “DLL4^+ neutrophils promote Notch1-mediated endothelial PANoptosis to exacerbate acute lung injury in sepsis” (The Journal of Clinical Investigation, 2025).

Assay [1] has as its system ZBP1. In words: ZBP1 mRNA in PVECs cocultured with neutrophils, RT-PCR (DAPT, NDI, peptides 1–5). Set-up: key to ZBP1 mRNA expression (Figure 4E): fold change in mRNA vs sham group. The note with it: for ZBP1 mRNA expression (Figure 4E): 10 μM peptide, relative mRNA, β-actin normalized, individual replicates. In kind it is cell-based, mouse. The method, then:
Immortalized mouse (Mus musculus) lung endothelial cells with polyoma middle T (PVECs) were purchased from Applied Biological Materials Inc. (ABM) and grown in 1:1 PriGrow VI Medium and PriGrow IV Medium (ABM).
(§1) Wild-type PVECs (5 × 10^5) were cocultured with sorted DLL4^+ neutrophils (5 × 10^5) or DLL4^– neutrophils (5 × 10^5) and then treated with different dosages of peptides or 10 μM DAPT (Thermo Fisher Scientific), 10 μM NDI (GenScript), or 10 μM NDI scramble (GenScript). Notch1-knockdown PVECs (5 × 10^5) were cocultured with sorted DLL4^+ neutrophils (5 × 10^5). After 16 hours, neutrophils were washed away by PBS, and PVECs were collected for further experiments. Cell viability was evaluated by propidium iodide staining using the FITC Annexin V Apoptosis Detection Kit I (catalog 556547, BD Pharmingen). Cell death was quantified as the percentage of propidium iodide–positive cells by flow cytometry.
mRNA was extracted from lung tissues with TRIzol reagent (Invitrogen, Thermo Fisher Scientific). An equal amount ([…]) of mRNA was reverse-transcribed into cDNA using the reverse transcriptase enzyme (Invitrogen, Thermo Fisher Scientific). qPCR was performed from the diluted cDNA templates with forward and reverse primers (Supplemental Table 4) and SYBR Green PCR Master Mix (Applied Biosystems, Thermo Fisher Scientific) using an Applied Biosystems 7300 real-time PCR machine. Mouse β-actin served as an internal control gene for normalization. Relative expression of mRNA was represented as fold change in comparison with the sham group.

For assay [2], the system named is ZBP1. The assay can be described thus: ZBP1 protein in PVECs cocultured with neutrophils, Western blot. The assay is classed as cell-based, mouse. The note with it: for ZBP1 protein level (Figure 4F): 10 μM peptide, 16 h, individual replicates. The method, then:
as §1
PVECs and lung tissue were collected in previous steps. Whole-cell proteins were extracted, and the protein concentration was measured using an ABC protein assay kit (catalog 5000002, Bio-Rad). Proteins were separated using NuPAGE 4%–12% Bis-Tris gels (Invitrogen), transferred to PVDF membranes, and immunoblotted with the antibodies indicated in the figure legends according to the manufacturer’s recommendations. The ZBP1 antibody (catalog PA5-20455; 1:1,000) used in this study was obtained from Thermo Fisher Scientific, and the c-GSDMD (catalog 10137S; 1:250), GSDMD (catalog 39754S; 1:1000), c-caspase-3 (catalog 9661L; 1:250), caspase-3 (catalog 9662S; 1:1,000), p-MLKL (catalog 37333S; 1:250), MLKL (catalog 37705S; 1:1,000), N1ICD (c-Notch1) (catalog 4147S; 1:250), and Notch1 (catalog 3608S; 1:1,000) antibodies were obtained from Cell Signaling Technology. GAPDH (catalog 60004-1-Ig; 1:10,000) and β-actin (catalog A5441, Sigma-Aldrich; 1:5,000) were obtained from ProteinTech. After the blots were incubated with primary antibodies, the membranes were washed 3 times, and the blots were subsequently incubated with the corresponding fluorescent secondary antibody (LI-COR). Bands were detected using an Odyssey FC Dual-Mode Imaging system 2800 (LI-COR).
On the technique in general: In western blotting, separated proteins are transferred to a membrane and probed.

For the next assay, the system named is c-GSDMD. The assay can be described thus: c/t GSDMD in lungs of CLP mice, Western blot. The note with it: 10 mg/kg NDI, 20 h; for lung c/t GSDMD (Figure 5D): individual mice, 10 mg/kg. The assay is classed as in vivo, mouse. Here is the method: (§2) Sepsis was induced in mice by cecal ligation and puncture (CLP) as described previously ([45], [46]). Mice were anesthetized with isoflurane to a surgical plane and placed in a supine position. CLP was performed through a midline laparotomy. The abdomen was shaved and disinfected. Through a 2 cm midline incision, the cecum was exposed and then ligated with a 4-0 silk suture 1 cm proximal from the distal cecal extremity. For 20-hour CLP experiments, the cecum was punctured twice with a 22-gauge needle. A small amount of cecal content was extruded through both holes, and the ligated cecum was returned to the peritoneal cavity. The wound was closed in layers. For 10-day sepsis survival studies, the cecum was punctured once with a 22-gauge needle. A small amount of cecal content was extruded. Mice were allocated to the vehicle and adoptive transfer of DLL4^+ neutrophils or DLL4^– neutrophils groups. Adoptive transfer mice received a retro-orbital injection of 1 × 10^6 cells per mouse DLL4^+ neutrophils or DLL4^– neutrophils in […] phosphate-buffered saline (PBS) immediately after abdominal closure in both the 20-hour experiments and the survival study. Vehicle groups received an equivalent volume of PBS, while treatment groups received NDI 10 mg/kg in 100 mL PBS via retro-orbital injection after CLP. This dose was chosen primarily on the basis of our laboratory’s prior experience, we have consistently used this dose in mouse CLP models with reproducible efficacy and without observable toxicity ([39], [44]). Sham-operated animals underwent a laparotomy without CLP. After closure, the mice received a subcutaneous injection of 0.5 mL of normal saline to overcome surgery-induced dehydration. […]
PVECs and lung tissue were collected in previous steps. Whole-cell proteins were extracted, and the protein concentration was measured using an ABC protein assay kit (catalog 5000002, Bio-Rad). […] Bands were detected using an Odyssey FC Dual-Mode Imaging system 2800 (LI-COR).

Assay [3] has as its system ZBP1. In words: ZBP1 in pulmonary endothelial cells (CD31) of CLP mice, confocal immunofluorescence. The note with it: sepsis, 10 mg/kg NDI, 20 h. In kind it is in vivo, mouse. Here is the method:
as §2, with “study.” for “study. Vehicle groups received an equivalent volume of PBS, while treatment groups received NDI 10 mg/kg in 100 mL PBS via retro-orbital injection after CLP. This dose was chosen primarily on the basis of our laboratory’s prior experience, we have consistently used this dose in mouse CLP models with reproducible efficacy and without observable toxicity ([39], [44]). Sham-operated animals underwent a laparotomy without CLP. After closure, the mice received a subcutaneous injection of 0.5 mL of normal saline to overcome surgery-induced dehydration.”
For immunohistochemistry staining, paraffin-embedded lung tissue sections were deparaffinized and dewaxed in xylene and a series of ethanol. […] The images were analyzed with ImageJ Fiji (NIH).

Where [4] appears, read: 10 μM NDI, DLL4^+ neutrophil coculture.

Where “and” joins values, the source holds several entries; their conditions need not be identical. Equal values may be shown once.

On to ECAGSPCHNGGTCEDGI [NDI], for which the “effect on ZBP1 mRNA” value in the assay on ZBP1 [1] (setting [4]) is “significantly attenuated by NDI treatment”; in the assay with ZBP1 [1] (PVECs cocultured with DLL4^+ neutrophils, varying concentrations of peptide, 16 h, n=10/group), “significantly reduced ZBP1 expression”. The “ZBP1 mRNA expression (Figure 4E)” value was 1.415 and 1.669 and 3.8174 and 1.677 and 1.56 and 2.849 and 9.163 and 6.321 and 1.561 and 1.421 and 1.212 and 1.283 and 1.413 and 1.3501 in the assay on ZBP1 [1] (DLL4^+ neutrophil coculture, 16 h); 1.952 and 2.343 and 4.227 and 9.382 and 4.404 and 4.151 and 12.0095 and 11.4783 and 1.027 and 3.606 and 3.156 and 1.889 and 1.85 and 3.13 in the assay on ZBP1 [1] (DLL4^– neutrophil coculture, 16 h). Also, the “inhibition of DLL4^+ neutrophil–induced PANoptosis in PVECs, by reduced ZBP1 expression” value in the assay on ZBP1 [1] (among the tested peptides) is reported as “most effectively inhibited”. For the same sequence, the “effective concentration for ZBP1 inhibition” value in the assay on ZBP1 [1] (dose-response, PVECs cocultured with DLL4^+ neutrophils) turned out to be 10 µM. In the assay with ZBP1 [2] (setting [4]), the “effect on ZBP1 protein” value is “significantly attenuated by NDI treatment”. Further, in the assay with ZBP1 [2] (10 μM NDI, DLL4^– neutrophil coculture), the “effect on ZBP1, c-GSDMD, c-caspase-3, and p-MLKL” value was “less effect on the DLL4^– neutrophil coculture group”. Also, the “ZBP1 protein level (Figure 4F)” value in the assay on ZBP1 [2] (DLL4^+ neutrophil coculture) is 3.384 and 1.384 and 0.9406 and 0.8744 and 0.4031 and 0.6648 and 0.9901 and 0.7708 and 1.063 and 1.037 and 1.784 and 1.376 and 1.24 and 1.14; in the assay with ZBP1 [2] (DLL4^– neutrophil coculture), 1.4609 and 1.716 and 1.338 and 0.9958 and 0.6394. The “lung c/t GSDMD (Figure 5D)” value in the assay with c-GSDMD (DLL4^+ neutrophils + CLP) is 2.146 and 1.894 and 1.978 and 1.095 and 1.287 and 1.8342; in the assay with c-GSDMD (DLL4^– neutrophils + CLP), 1.599 and 0.7489 and 0.6289 and 1.139 and 1.05. Moreover, the “effect on lung c-GSDMD” value in the assay with c-GSDMD (DLL4^+ neutrophils/sepsis) is given as “attenuated the expression/activation”. Besides, the “effect on ZBP1 in pulmonary endothelial cells, immunostaining” value with ZBP1 [3] is given as “reduced ZBP1 expression in pulmonary endothelial cells in sepsis”.
